According to ChEMBL document CHEMBL4190187, “Discovery of pyrazolopyrimidine derivatives as novel inhibitors of ataxia telangiectasia and rad3 related protein (ATR)” (Bioorg Med Chem Lett, 2017):

Key:
[1] = biological target: Serine/threonine-protein kinase BRSK1 (Homo sapiens) (UniProt Q8TDC3); test: Inhibition of recombinant human BrSK1 (2 to end residues) at 1 uM using KKKVSRSGLYRSPSMPENLNRPR as substrate after 40 mins in presence of [gamma-33P]ATP by scintillation counting method
[2] = Metabolic stability in mouse liver microsomes assessed as compound remaining at 1 uM in presence of NADPH as cofactor measured after 30 mins by LC-MS/MS method; assay type: ADME, microsome; conditions: read-out: Stability
[3] = biological target: Wee1-like protein kinase 2 (Homo sapiens) (UniProt P0C1S8); test: Inhibition of recombinant full-length human Wee1B at 1 uM using LSNLYHQGKFLQTFCGSPLYRRR as substrate after 120 mins in presence of [gamma-33P]ATP by scintillation counting method
[4] = biological target: Rhodopsin kinase GRK7 (Homo sapiens) (UniProt Q8WTQ7); test: Inhibition of recombinant full-length human GRK7 at 1 uM using casein as substrate after 40 mins in presence of [gamma-33P]ATP by scintillation counting method
[5] = biological target: Serine/threonine-protein kinase ULK3 (Homo sapiens) (UniProt Q6PHR2); test: Inhibition of recombinant full-length human ULK3 at 1 uM using casein as substrate after 40 mins in presence of [gamma-33P]ATP by scintillation counting method
Chain of Serine/threonine-protein kinase ULK3 (Homo sapiens) (Q6PHR2 whole entry): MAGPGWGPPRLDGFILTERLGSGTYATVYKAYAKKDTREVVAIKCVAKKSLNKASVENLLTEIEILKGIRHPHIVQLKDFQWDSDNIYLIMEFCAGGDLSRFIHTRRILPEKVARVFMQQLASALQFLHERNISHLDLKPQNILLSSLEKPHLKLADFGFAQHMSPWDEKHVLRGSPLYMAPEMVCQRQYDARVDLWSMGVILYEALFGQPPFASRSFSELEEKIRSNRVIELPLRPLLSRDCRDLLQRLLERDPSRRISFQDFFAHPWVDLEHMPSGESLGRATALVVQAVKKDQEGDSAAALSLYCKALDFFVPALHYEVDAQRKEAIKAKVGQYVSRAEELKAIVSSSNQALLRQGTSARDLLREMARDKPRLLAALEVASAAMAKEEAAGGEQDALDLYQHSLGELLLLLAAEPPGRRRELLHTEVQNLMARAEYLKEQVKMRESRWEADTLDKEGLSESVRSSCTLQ

[6] = biological target: Serine/threonine-protein kinase 33 (Homo sapiens) (UniProt Q9BYT3); test: Inhibition of recombinant full-length human STK33 at 1 uM using myelin basic protein as substrate after 40 mins in presence of [gamma-33P]ATP by scintillation counting method
Chain of Serine/threonine-protein kinase 33 (Homo sapiens) (Q9BYT3 whole entry, looked up): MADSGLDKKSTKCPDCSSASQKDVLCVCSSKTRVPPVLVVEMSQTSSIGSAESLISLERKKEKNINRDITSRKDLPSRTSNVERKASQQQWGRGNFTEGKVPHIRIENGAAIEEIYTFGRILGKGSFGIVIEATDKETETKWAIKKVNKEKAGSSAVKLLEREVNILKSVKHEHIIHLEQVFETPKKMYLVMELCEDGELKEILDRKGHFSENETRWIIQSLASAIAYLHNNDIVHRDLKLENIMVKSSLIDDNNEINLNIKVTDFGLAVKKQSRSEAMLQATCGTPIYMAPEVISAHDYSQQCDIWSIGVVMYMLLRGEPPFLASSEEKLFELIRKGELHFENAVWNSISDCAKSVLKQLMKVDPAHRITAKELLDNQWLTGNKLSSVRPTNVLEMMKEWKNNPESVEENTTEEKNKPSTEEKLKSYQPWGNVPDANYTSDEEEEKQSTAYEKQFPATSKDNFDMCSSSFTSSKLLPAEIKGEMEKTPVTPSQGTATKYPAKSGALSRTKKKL

[7] = biological target: Tyrosine-protein kinase SYK (Homo sapiens) (UniProt P43405); test: Inhibition of recombinant full-length human Syk at 1 uM using poly(Glu,Tyr) 4:1 as substrate after 40 mins in presence of [gamma-33P]ATP by scintillation counting method
[8] = biological target: Tau-tubulin kinase 1 (Homo sapiens) (UniProt Q5TCY1); test: Inhibition of recombinant human TTBK1 (1 to 479 residues) at 1 uM using casein as substrate after 40 mins in presence of [gamma-33P]ATP by scintillation counting method
[9] = biological target: Homeodomain-interacting protein kinase 1 (Homo sapiens) (UniProt Q86Z02); test: Inhibition of recombinant human HIPK1 (158 to 555 residues) at 1 uM using myelin basic protein as substrate after 40 mins in presence of [gamma-33P]ATP by scintillation counting method
Chain of Homeodomain-interacting protein kinase 1 (Homo sapiens) (Q86Z02 whole entry, looked up, the tested form may be a part): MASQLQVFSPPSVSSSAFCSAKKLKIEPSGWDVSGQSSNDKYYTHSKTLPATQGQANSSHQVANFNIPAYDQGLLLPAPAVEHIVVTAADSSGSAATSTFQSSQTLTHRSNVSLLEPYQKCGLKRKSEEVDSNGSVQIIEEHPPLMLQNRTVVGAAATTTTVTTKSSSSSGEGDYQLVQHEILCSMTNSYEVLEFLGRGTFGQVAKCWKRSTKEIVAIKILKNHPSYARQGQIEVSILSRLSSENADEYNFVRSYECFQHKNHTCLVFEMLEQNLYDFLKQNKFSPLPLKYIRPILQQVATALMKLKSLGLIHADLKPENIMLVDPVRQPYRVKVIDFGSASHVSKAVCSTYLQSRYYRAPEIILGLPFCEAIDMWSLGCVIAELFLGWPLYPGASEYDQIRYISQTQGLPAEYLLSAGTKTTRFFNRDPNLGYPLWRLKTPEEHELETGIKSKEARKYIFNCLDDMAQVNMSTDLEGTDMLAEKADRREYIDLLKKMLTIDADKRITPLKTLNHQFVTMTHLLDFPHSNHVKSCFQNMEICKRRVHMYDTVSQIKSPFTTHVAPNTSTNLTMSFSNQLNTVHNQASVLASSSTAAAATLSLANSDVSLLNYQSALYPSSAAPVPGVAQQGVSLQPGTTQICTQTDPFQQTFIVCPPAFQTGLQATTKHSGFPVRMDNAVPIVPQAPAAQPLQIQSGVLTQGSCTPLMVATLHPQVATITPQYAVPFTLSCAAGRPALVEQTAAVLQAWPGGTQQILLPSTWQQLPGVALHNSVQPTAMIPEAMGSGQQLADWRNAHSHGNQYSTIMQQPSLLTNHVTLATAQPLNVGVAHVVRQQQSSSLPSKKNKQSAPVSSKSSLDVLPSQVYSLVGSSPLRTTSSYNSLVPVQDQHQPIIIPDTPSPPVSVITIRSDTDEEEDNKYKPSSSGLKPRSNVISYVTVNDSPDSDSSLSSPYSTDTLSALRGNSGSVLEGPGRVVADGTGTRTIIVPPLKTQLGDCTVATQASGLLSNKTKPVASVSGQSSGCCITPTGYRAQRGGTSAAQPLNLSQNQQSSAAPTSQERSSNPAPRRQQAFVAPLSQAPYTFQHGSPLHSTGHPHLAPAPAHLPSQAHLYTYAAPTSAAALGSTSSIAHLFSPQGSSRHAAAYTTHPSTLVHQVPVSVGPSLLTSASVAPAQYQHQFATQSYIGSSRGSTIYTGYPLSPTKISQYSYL

[10] = biological target: Aurora kinase B (Homo sapiens) (UniProt Q96GD4); test: Inhibition of recombinant full-length human Aurora-B at 1 uM using AKRRRLSSLRA as substrate after 40 mins in presence of [gamma-33P]ATP by scintillation counting method
Chain of Aurora kinase B (Homo sapiens) (Q96GD4 whole entry): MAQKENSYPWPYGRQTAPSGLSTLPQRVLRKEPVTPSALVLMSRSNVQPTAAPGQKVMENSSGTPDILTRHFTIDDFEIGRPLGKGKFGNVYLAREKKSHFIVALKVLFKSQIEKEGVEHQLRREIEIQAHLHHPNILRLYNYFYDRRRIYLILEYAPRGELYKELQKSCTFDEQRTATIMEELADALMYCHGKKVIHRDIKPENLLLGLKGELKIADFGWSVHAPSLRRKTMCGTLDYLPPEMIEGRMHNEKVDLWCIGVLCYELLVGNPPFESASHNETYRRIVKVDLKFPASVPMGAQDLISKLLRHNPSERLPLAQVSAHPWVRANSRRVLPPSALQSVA

[11] = biological target: Dual specificity tyrosine-phosphorylation-regulated kinase 3 (Homo sapiens) (UniProt O43781); test: Inhibition of recombinant full-length human DYRK3 at 1 uM using RRRFRPASPLRGPPK as substrate after 40 mins in presence of [gamma-33P]ATP by scintillation counting method
[12] = biological target: Calcium/calmodulin-dependent protein kinase type 1B (Homo sapiens) (UniProt Q6P2M8); test: Inhibition of recombinant full-length human CAMK1beta at 1 uM using KKLRRTLSFAEPG as substrate after 40 mins in presence of [gamma-33P]ATP by scintillation counting method
[13] = biological target: Receptor tyrosine-protein kinase erbB-4 (Homo sapiens) (UniProt Q15303); test: Inhibition of recombinant human ErbB4 (706 to 991 residues) at 1 uM using poly(Glu,Tyr) 4:1 as substrate after 40 mins in presence of [gamma-33P]ATP by scintillation counting method
[14] = biological target: NUAK family SNF1-like kinase 1 (Homo sapiens) (UniProt O60285); test: Inhibition of recombinant human ARK5 (2 to end residues) at 1 uM using KKKVSRSGLYRSPSMPENLNRPR as substrate after 40 mins in presence of [gamma-33P]ATP by scintillation counting method
[15] = Apparent volume of distribution in mouse at 2 mg/kg, iv or 10 mg/kg, po; assay type: ADME, organism-based; conditions: in vivo, read-out: Vz
[16] = biological target: CDK6/cyclin D3 (Homo sapiens) (UniProt P30281+Q00534); test: Inhibition of recombinant full-length human CDK6/Cyclin D3 at 1 uM using histone H1 as substrate after 40 mins in presence of [gamma-33P]ATP by scintillation counting method; assay type: protein-complex assay
[17] = biological target: Serine/threonine-protein kinase DCLK3 (Homo sapiens) (UniProt Q9C098); test: Inhibition of recombinant human DCAMKL3 (345 to end residues) at 1 uM using KKLNRTLSFAEPG as substrate after 40 mins in presence of [gamma-33P]ATP by scintillation counting method
[18] = biological target: Serine/threonine-protein kinase Chk1 (Homo sapiens) (UniProt O14757); test: Inhibition of recombinant full-length human CHK1 at 1 uM using KKKVSRSGLYRSPSMPENLNRPR as substrate after 40 mins in presence of [gamma-33P]ATP by scintillation counting method
[19] = biological target: Insulin-like growth factor 1 receptor (Homo sapiens) (UniProt P08069); test: Inhibition of recombinant human activated IGF-1R (959 to end residues) at 1 uM using KKKSPGEYVNIEFG as substrate after 40 mins in presence of [gamma-33P]ATP by scintillation counting method
Chain of Insulin-like growth factor 1 receptor (Homo sapiens) (P08069 31-736 limits assumed): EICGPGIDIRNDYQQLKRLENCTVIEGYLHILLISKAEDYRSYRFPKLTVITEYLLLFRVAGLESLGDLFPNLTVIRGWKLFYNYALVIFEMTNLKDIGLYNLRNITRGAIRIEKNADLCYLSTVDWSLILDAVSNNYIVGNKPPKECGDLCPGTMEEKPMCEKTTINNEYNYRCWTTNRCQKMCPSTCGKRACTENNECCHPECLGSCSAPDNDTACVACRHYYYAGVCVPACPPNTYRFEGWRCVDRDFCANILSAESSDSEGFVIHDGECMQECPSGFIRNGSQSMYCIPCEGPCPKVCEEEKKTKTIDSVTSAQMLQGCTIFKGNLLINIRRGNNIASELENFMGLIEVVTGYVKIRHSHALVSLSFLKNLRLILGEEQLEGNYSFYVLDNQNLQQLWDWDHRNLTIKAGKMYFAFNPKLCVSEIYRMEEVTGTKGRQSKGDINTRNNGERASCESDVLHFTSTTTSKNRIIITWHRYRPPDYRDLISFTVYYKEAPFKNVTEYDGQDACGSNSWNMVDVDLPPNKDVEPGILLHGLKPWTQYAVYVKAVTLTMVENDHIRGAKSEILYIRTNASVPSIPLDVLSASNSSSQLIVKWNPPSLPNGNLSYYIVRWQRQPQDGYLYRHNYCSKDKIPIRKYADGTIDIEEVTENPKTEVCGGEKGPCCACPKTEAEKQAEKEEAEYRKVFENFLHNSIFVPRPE
Chain of Insulin-like growth factor 1 receptor (Homo sapiens) (P08069 741-1367 limits assumed): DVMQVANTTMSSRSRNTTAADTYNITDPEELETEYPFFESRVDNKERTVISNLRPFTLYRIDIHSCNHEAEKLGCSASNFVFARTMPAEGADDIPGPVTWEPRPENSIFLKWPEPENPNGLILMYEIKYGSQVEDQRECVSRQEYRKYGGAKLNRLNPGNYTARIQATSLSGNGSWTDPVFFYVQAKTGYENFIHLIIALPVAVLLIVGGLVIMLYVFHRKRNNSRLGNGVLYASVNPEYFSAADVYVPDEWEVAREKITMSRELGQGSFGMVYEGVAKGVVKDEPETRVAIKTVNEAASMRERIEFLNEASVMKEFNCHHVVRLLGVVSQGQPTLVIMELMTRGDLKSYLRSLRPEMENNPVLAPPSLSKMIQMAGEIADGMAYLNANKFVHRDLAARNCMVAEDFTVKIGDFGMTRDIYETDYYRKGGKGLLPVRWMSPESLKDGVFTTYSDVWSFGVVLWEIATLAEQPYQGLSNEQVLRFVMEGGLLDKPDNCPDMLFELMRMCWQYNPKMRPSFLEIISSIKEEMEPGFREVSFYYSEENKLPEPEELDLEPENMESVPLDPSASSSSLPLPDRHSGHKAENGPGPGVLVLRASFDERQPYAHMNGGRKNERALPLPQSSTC

[20] = biological target: Rhodopsin kinase GRK1 (Homo sapiens) (UniProt Q15835); test: Inhibition of recombinant full-length human GRK1 at 1 uM using KKKKERLLDDRHDSGLDSMKDEE as substrate after 40 mins in presence of [gamma-33P]ATP by scintillation counting method
Chain of Rhodopsin kinase GRK1 (Homo sapiens) (Q15835 whole entry): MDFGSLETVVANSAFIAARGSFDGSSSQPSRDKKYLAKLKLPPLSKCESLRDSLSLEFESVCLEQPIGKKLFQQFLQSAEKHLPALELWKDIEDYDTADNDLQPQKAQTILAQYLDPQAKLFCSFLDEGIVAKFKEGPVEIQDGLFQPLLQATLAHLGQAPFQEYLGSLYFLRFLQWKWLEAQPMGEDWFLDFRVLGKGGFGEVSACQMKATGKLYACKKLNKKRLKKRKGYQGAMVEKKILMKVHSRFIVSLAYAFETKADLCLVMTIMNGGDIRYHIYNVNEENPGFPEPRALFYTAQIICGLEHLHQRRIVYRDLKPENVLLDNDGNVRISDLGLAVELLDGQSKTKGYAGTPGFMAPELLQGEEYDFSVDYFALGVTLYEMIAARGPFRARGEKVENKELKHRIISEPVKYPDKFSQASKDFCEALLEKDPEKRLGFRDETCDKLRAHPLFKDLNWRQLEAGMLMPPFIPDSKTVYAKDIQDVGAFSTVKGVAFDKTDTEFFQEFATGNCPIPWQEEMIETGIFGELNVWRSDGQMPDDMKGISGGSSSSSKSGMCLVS

[21] = biological target: Tyrosine-protein kinase BTK (Homo sapiens, UniProt Q06187); test: Inhibition of recombinant full-length human BTK at 1 uM using KVEKIGEGTYGVVYK as substrate after 40 mins in presence of [gamma-33P]ATP by scintillation counting method
[22] = biological target: Serine/threonine-protein kinase MAK (Homo sapiens) (UniProt P20794); test: Inhibition of recombinant full-length human MAK at 1 uM using RRRFRPASPLRGPPK as substrate after 120 mins in presence of [gamma-33P]ATP by scintillation counting method
[23] = biological target: Casein kinase I isoform gamma-3 (Homo sapiens) (UniProt Q9Y6M4); test: Inhibition of recombinant human CK1gamma3 (1 to 330 residues) at 1 uM using KRRRALS(p)VASLPGL as substrate after 40 mins in presence of [gamma-33P]ATP by scintillation counting method
Chain of Casein kinase I isoform gamma-3 (Homo sapiens) (Q9Y6M4 whole entry, looked up, the tested form may be a part, canonical isoform): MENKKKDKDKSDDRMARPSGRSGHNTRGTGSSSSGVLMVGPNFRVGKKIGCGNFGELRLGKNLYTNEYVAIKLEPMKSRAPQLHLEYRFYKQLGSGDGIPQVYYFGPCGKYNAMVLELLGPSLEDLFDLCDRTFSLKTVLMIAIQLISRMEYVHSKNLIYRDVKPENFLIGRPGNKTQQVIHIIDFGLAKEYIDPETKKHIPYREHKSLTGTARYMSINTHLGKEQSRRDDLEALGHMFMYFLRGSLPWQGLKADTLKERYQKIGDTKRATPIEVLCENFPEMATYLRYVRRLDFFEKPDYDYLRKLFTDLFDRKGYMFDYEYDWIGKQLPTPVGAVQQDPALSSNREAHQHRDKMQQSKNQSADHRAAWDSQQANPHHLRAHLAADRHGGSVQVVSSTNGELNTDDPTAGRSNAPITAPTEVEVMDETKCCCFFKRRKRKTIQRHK

[24] = biological target: Serine/threonine-protein kinase STK11 (Homo sapiens) (UniProt Q15831); test: Inhibition of recombinant full-length human LKB1 at 1 uM using LSNLYHQGKFLQTFCGSPLYRRR as substrate after 40 mins in presence of [gamma-33P]ATP by scintillation counting method
[25] = biological target: Tyrosine-protein kinase Tec (Homo sapiens) (UniProt P42680); test: Inhibition of recombinant activated human Tec (174 to end residues) at 1 uM using EFPIYDFLPAKKK as substrate after 40 mins in presence of [gamma-33P]ATP by scintillation counting method

CS(=O)(=O)c1ccc(-n2nc(-c3cnc4[nH]ccc4c3)c3c(N)ncnc32)cc1 showed an inhibition [1] of 13%, a remaining at 0.5 h, 1 µM [2] of 79% and an inhibition [3] of -3%. For the same molecule, the inhibition [4] was -3%, the inhibition [5] was 16% and the inhibition [6] was 4%. The inhibition [7] was 7%, the inhibition [8] was 11% and the inhibition [9] was -2%. The inhibition [10] was 7%, the inhibition [11] was -10% and the inhibition [12] was -5%. For the same molecule, the inhibition [13] was 4%, the inhibition [14] was 15% and the Vd [15] was 2.15 L/kg. It also gave an inhibition [16] of -6%, an inhibition [17] of -8% and an inhibition [18] of 2%. For the same molecule, the inhibition [19] was 11%, the inhibition [20] was 10% and the inhibition [21] was 25%. For the same molecule, the inhibition [22] was 2%, the inhibition [23] was 9% and the inhibition [24] was -5%. It also gave an inhibition [25] of 55%.
